Measured values as given in US20250360069A1, “SUNSCREEN COMPOSITION FOR LACTOBACILLUS AND S. EPIDERMIDIS PROTECTION ON SKIN” (DSM IP Assets B.V., priority 2022, published 2025).

Key:
[1] = tested on: Lactobacillus crispatus CIP 103604; assay: In vitro UV model: bacterial survival upon UV irradiation (96-well, MPN count); type: cell-based; conditions: sample 20% v/v, UV 50 SED (500 mJ/cm^2 UVA+UVB), after 4 h; for L. crispatus survival: compared to untreated and non-irradiated control
Experimental: (§1) The microbial strains used in this study are listed below and their cultures are reconstituted according to the direction of the supplier collection center of the reference strain, CRBIP (Institut Pasteur Collection, France) or ATCC (American Type Culture Collection, USA): • Lactobacillus crispatus CIP 103604 • Staphylococcus epidermidis ATCC 12228 The 96-well plate was filled with the culture media (140 μL) and a calibrated inoculum (20 μL) of each bacterial strain was added to reach […] colony forming units per milliliter (cfu/mL) final concentration. After contamination, the sample was added (40 μL; 20% v/v) in triplicate and was thoroughly mixed to ensure a homogeneous distribution. Then, the plate was submitted to UV stress through an UV irradiator system (BioSun, Vilber Lourmat, France) according to the UV doses presented Table 1 below. The specific UV dose selected was between 10 and 49% survival of the microbial population. For the microbial population counts, aliquots of the contaminated samples of L. crispatus and S. epidermidis were serially diluted (4 decimal dilutions followed by 8 binary dilutions, in triplicate) in culture media on 96-wells plates with triphenyltetrazolium. Then, the plates were incubated at 37° C.±2,5° C. during 48 h taking into account the respiratory type of each strain. After 48 h at the optimal growing conditions, the last dilution showing a pink color (triphenyltetrazolium) or turbidity indicated the contamination rate and allowed the determination of the decrease rate of microbial population (most probable number MPN method). Controls performed during this experiment were the culture medium with bacteria incubated without UV stress. The microbial population counts were expressed in cfu/mL and were the average of experiment done in triplicate. The use level of the single UV filter and combinations in the test formulations was calculated to obtain a predicted in vitro SPF value of 5.75+/−0.15 and 23.45+/−0.65, respectively (Table 2). The UV filters were mixed in the two oils, Tegosoft XC (55%) and Miglyol 829 Eco (ad100%) and the emulsifier Tween 80 (5%). The effect of selected UV irradiation conditions on the survival of microbial population of L. crispatus and S. epidermidis in the presence of the tested samples 1-10 at 20% v/v, was compared with the corresponding strain in the absence of samples 1-10 and without exposure to UV irradiation (control). The results after the 4-hour incubation were compared to the population of bacteria incubated without UV stress (determination of bacterial population survival) and were expressed in percentage of survival. The relative percentage of protection (%) was calculated from the difference between the survival percentages of samples and vehicle control (with UV irradiation) and divided to the survival percentage of the vehicle control. Consequently, the survival of each microbial population and the relative protection by the UV filter(s) were calculated and are summarized in the Table 2.

[2] = tested on: Staphylococcus epidermidis ATCC 12228; assay: as above; type: cell-based; conditions: sample 20% v/v, UV 15 SED (150 mJ/cm^2 UVA+UVB), after 4 h; for S. epidermidis survival: compared to untreated and non-irradiated control
Experimental: as §1

| SMILES | L. crispatus relative protection by the UV filter(s) vs. vehicle control [1] | L. crispatus survival [1] [%] | S. epidermidis relative protection by the UV filter(s) vs. vehicle control [2] | S. epidermidis survival [2] [%] |
| --- | --- | --- | --- | --- |
| CCCCC(CC)COC(=O)C(C#N)=C(c1ccccc1)c1ccccc1 (stereo not shown) [Inv. 1, Octocrylene] | (+300) % | 50 | (+59) % | 63 |
| CCCCC(CC)COC(=O)c1ccc(Nc2nc(Nc3ccc(C(=O)OCC(CC)CCCC)cc3)nc(Nc3ccc(C(=O)OCC(CC)CCCC)cc3)n2)cc1 (stereo not shown) [Inv. 3, Ethylhexyl Triazone] | (+100) % | 25 | (+59) % | 63 |
| CCCCC(CC)COc1ccc(-c2nc(-c3ccc(OC)cc3)nc(-c3ccc(OCC(CC)CCCC)cc3O)n2)c(O)c1 (stereo not shown) [Ref. 2, Bis-Ethylhexyloxyphenol Methoxyphenyl Triazine] | (+59) % | 20 | (+100) % | 79 |
| CCCCC(CC)COC(=O)c1ccccc1O (stereo not shown) [Ref. 1, Ethylhexyl Salicylate] | (+59) % | 20 | (+100) % | 79 |
